Laboratory results as given in US10849904B2, “Methods for treatment of retinal disease by photoreceptor gene expression modulation” (University of Washington, priority 2015, dated 2020).

What was measured:
[1] = tested on: intact retinas from P12 wild type mice; test: P12 mouse retinal explant culture, qPCR for rod gene expression; type: cell-based; conditions: P12 explants, 1 μM, 2 days, vs DMSO
Source text: To identify functional Nr2e3 antagonists, compounds were cheminformatically searched and structural analogs of a putative Nr2e3 interacting compound with unknown function were collected. See FIGS. 2 and 4 for the structures of the compounds. The collected compounds were then screened in a physiologically relevant primary culture assay using intact retinas from postnatal day 12-13 (P12-13) C57BL/6 mice for suppression of Rho expression (See FIG. 6A). After a 2 day culture period with media containing DMSO or compounds at 1 μM, the retinas were collected and assessed Rho expression by qPCR. Rho was chosen because it is a well-described target of Nr2e3 in rod photoreceptors. […] This analysis also provided an initial structure-activity relationship.
Nr2e3 loss-of-function mutations lead to a reduction in rod gene expression. To determine whether the same was true for PR1 (FIG. 6D), explant cultures of P12 retina as above were treated and assayed for other rod photoreceptor genes. After 2 days in culture, PR1 decreased the expression of the rod specific genes Nrl, Nr2e3, Rho, Gnat1, and Pde6b compared to DMSO treatment by qPCR analysis (FIG. 6C). […] To determine the dose-response relationship between PR1 concentration and expression of rod genes, retinas from P12 mice were explanted in media containing DMSO or 0.1, 1, 5, or 10 μM PR1 for 2-3 days and assayed Nrl, Nr2e3, and Rho expression by qPCR. […] PR1 was tested to determine whether it could cause a reduction in Rho expression in human rod photoreceptors as well. Pairs of 113 day post-conception retinas were explanted in media with DMSO or 10 μM PR1 for 7 or 23 days. After 7 and 23 days in culture, PR1 decreased the expression of Rho compared to DMSO treatment (FIG. 6F), similar to the effect observed in mouse retinal explants.
Intact retinas without RPE from mice of various strains and ages as indicated were explanted on 0.4 μm pore tissue culture inserts (Millipore) as previously described (Ueki, Y., et al., P53 is required for the developmental restriction in Muller glial proliferation in mouse retina. Glia, 2012. 60(10): p. 1579-89; Ueki, Y., et al., A transient wave of BMP signaling in the retina is necessary for Muller glial differentiation. Development, 2015. 142(3): p. 533-43. Full media (DMEM/F12 (1:1) containing 1% dialyzed FBS, 1% Pen Strep, 0.3% D+ glucose, 2% B27, and 1% N2) changes were performed every other day and small molecules were used at 0.1 μM to 10 μM. Where indicated, EdU (Invitrogen) was included in the media at 5 μg/mL and visualized by staining with the Click-iT EdU Alexa Fluor kit (Thermo Fisher Scientific). For human retinal explant cultures, tissue from 113 day post-conception fetuses was obtained from the University of Washington Birth Defects Laboratory and explanted on 0.4 μm pore tissue culture inserts (Millipore) in media (Neurobasal A with 1% FBS, 1% Pen Strep, 1% N2, 1% B27) containing 10 μM Photoregulin1 or an equal volume of DMSO.
RNA was isolated using TRIzol (Invitrogen) and cDNA was synthesized using the iScript cDNA synthesis kit (Bio-Rad) following an intervening DNase treatment with RQ1 RNase-free DNase (Promega). SSO Fast (Bio-Rad) was used for quantitative real-time PCR. For analysis, values were normalized to Gapdh and ΔΔCt between DMSO and compound-treated samples was expressed as percent of DMSO treated controls (100*2^ΔΔCt). Two-way Student's t-tests were performed on ΔCt values.

Thrb (Trβ2) = test: Cone gene expression, Thrb (FIG. 5)

Row | SMILES | relative rhodopsin (Rho) expression [1] | cone gene expression, Thrb (Trβ2) (Thrb (Trβ2))
1 | Cc1cccc(C(=O)NC(C(=O)Nc2ncc(C)s2)C(C)C)c1 (stereo not shown) [CA95] | reducing rhodopsin expression | increase
2 | Cc1cc(C)cc(NC(=O)CCc2nc3sc4c(c3c(=O)[nH]2)CCC4)c1 [CA8801] | reducing rhodopsin expression | 
3 | Cc1cccc(C(=O)NCC(=O)Nc2ncc(C)s2)c1 [CA9513] | reducing rhodopsin expression | 
